Measurements reported in US20020168365A1, “Method for modulating granzyme B uptake and for identifying modulators thereof” (priority 2000, published 2002).

Legend:
[1] = system: L cells and the MPR-transfected L cell lines; assay: GrB binding assay (flow cytometry); design: species or system murine; conditions: grB treated with alkaline phosphatase in the absence of phosphate
Protocol: (§1) Cells (1-2×10^5) were washed twice and resuspended in buffer before the addition of grB-biotin or -OG in a final volume of 20 μl for a 30-60 min incubation and washed again twice. In the case of grB-biotin, cells were then incubated with streptavidin-cychrome for 20 min and washed twice. Unless otherwise indicated, ˜25 ng grB-biotin or -OG was used to label cells. All steps of the assay were carried out at 4° C. to prevent intracellular uptake of grB. PBS/0.1% BSA buffer was used throughout the procedure. In some cases, results are presented as the relative MFI, which represents the MFI of the grB-labeled population minus the MFI of the unlabeled population.
(§2) GrB was treated for 1 hr at 37° C. in a phosphate-free (saline) or a high-phosphate (64.5 mM Na2HPO4.7H2O, 21 mM KH2PO4) buffer with calf intestinal alkaline phosphatase (1-10 U), 20 nM of the 37 kDa catalytic subunit of recombinant protein phosphatase-1 (Bagu et al, 1997), or with vehicle control. Cells were then incubated with the treated grB at 4° C. for 30-60 min. For the TUNEL or annexin V assays, cells were then washed twice before incubation at 37° C. with AD.

[2] = system: Jurkat cells; assay: GrB binding assay (flow cytometry, labeled grB at 4° C.); design: species or system human
Protocol: as §1, §2
(§3) M6P and various other monosaccharides at different concentrations were added to cells for 15 min at 4° C. before the addition of labeled grB, or at room temperature before the addition of grB and AD.
(§4) GrB was incubated with sCI-MPR at various concentrations in PBS/0.1% BSA for 30 min at 4° C. Subsequently, cells were incubated with grB/sCI-MPR for 30-60 min at 4° C. and washed twice, before analysis of binding, or before the addition of AD for TUNEL and annexin V analysis.

[3] = system: Jurkat cells; assay: TUNEL and annexin V apoptosis assays with grB and AD; assay type: cell-based, human
Protocol: as §2, §3, §4
(§5) For the in vitro killing assays, 10 pfu per cell of replication-deficient adenovirus (AD) were added subsequent to grB addition. Analysis of DNA fragmentation by TUNEL analysis has been described previously (Heibein et al., 1999). TUNEL materials (Roche Diagnostics) were used as per the manufacturer's instructions. Phosphatidylserine externalization was measured as previously described (Heibein et al., 1999) using annexin V-FITC (PharMingen). Percent specific TUNEL/annexin V positive cells was calculated as: [(% positive labeling cells with grB and AD-% positive labeling cells without grB and AD)/(100-% positive labeling cells without grB and AD)]×100.
Cells were resuspended at 10^6 cells/ml in 0.1% BSA/DMEM. Adenovirus (10 PFU/cell) and granzyme B (grB) were added directly to the cell suspension. Cells were incubated at 37° C. for 3 h. For staurosporine killing, cells were resuspended at 10^6 cells/ml in their normal growth medium and staurosporine (2.5 μM) was added directly to the cell suspension. Cells were incubated at 37° C. for 2, 4 and 8 h.
(§6) DNA fragmentation was monitored by flow cytometric analysis via the terminal deoxynucleotidyltransferase-mediated dUTP-biotin nick end labeling (TUNEL) method. Flow cytometric analysis was performed on a Becton Dickinson FACScanθ flow cytometer equipped with an argon-ion laser with 15 mW of excitation at 488 nm. Emission wavelengths were detected through the FL1 channel. Data were acquired on 10,000 cells per sample with light scatter signals at linear gain and fluorescence signals at logarithmic gain. Percent specific TUNEL positive cells was calculated as follows: [(% positive labeling cells with grB and AD−% positive labeling cells without grB and AD)/(AD−% positive labeling cells without grB and AD)]×100.
as §6, with “Phosphatidylserine externalization” for “DNA fragmentation”, “monitored using the ApoAlertθ annexin V apoptosis kit (Clontech) according to the protocol provided” for “monitored”, “by” for “by flow cytometric analysis via”, “manufacturer.” for “terminal deoxynucleotidyltransferase-mediated dUTP-biotin nick end labeling (TUNEL) method.”, “Annexin V” for “TUNEL”

[4] = system: CD-MPR^+ cells; assay: as above; assay type: cell-based, murine L cells transfected with human CD-MPR; conditions: 100 ng/ml grB and AD, 3 hr
Protocol: as §5

[5] = grB treated with catalytic subunit of protein phosphatase-1 (data not shown)

Substance: grB: Human serine proteinase granzyme B purified from the cytolytic granules of YT-Indy cells
- binding to L cells and the MPR-transfected L cell lines [1]: dramatic decrease in binding
- ability to bind Jurkat cells [2, 5]: did not lose
- ability to bind Jurkat cells ([2]; grB-biotin treated with alkaline phosphatase in phosphate-free buffer): marked reduction
- percentage of TUNEL/annexin V positive cells ([3]; Jurkat cells incubated with only grB (no AD)): under 8%
- TUNEL and annexin V labeling ([3]; Jurkat cells, 3 hr, varying concentrations of grB and AD (Example 2)): significant TUNEL and annexin V labeling
- ability to induce apoptosis of Jurkat cells [3, 5]: did not lose
- concentration sufficient to elicit effective Jurkat cell killing ([3]; granule-purified grB with AD (FIG. 3C)): less than 1 ng/ml
- annexin V binding after grB and AD [4]: did not bind annexin V
- grB and AD-mediated DNA fragmentation [4]: resistant
